This note sets out measurements from patent publication US11952358B2, “Flavan-3-ol analogs and anti-inflammatory activity” (Hong Kong Baptist University, priority 2021, dated 2024).

For series [1], the system named is RAW 264.7 cells. Briefly: CCK8 cell viability assay. The series is classed as cell-based, mouse. To be noted: 100 μM, 24 h. How it is done: RAW 264.7 cells were plated in a 96-well plate and treated with each compound (0, 25 μM, 50 μM and 100 μM) for 24 h. The viability of cells was tested by CCK8 assay. Data from three times independent experiments were expressed as means±SD. *P<0.05 compared with the control group for compound 3a-3j.
RAW 264.7 cells were plated in a 96-well plate and treated with each compound (0, 25 μM, 50 μM and 100 μM) for 24 h. The viability of cells was tested by CCK8 assay. Data from three times independent experiments were expressed as means±SD. *P<0.05 compared with the control group for compound 3k-3t.
RAW 264.7 cells were plated in a 96-well plate and treated with each compound (0, 25 μM, 50 μM and 100 μM) for 24 h. The viability of cells was tested by CCK8 assay. Data from three times independent experiments were expressed as means±SD. *P<0.05 compared with the control group for compound 3u-3ad.
RAW 264.7 cells were plated in a 96-well plate and treated with each compound (0, 25 μM, 50 μM and 100 μM) for 24 h. The viability of cells was tested by CCK8 assay. Data from three times independent experiments were expressed as means±SD. *P<0.05 compared with the control group for compound 3ae-3ag′.
Cell Viability Assay The CCK8 assay was used to evaluate the effect of each flavan-3-ol on the viability of RAW264.7 cells. Cells were plated into 96-well plates at a density of 2×10^5 cells/well in medium and cultured overnight. For formal experiments, cells were treated with different concentrations of flavan-3-ols (25, 50, and 100 μM). After 24 h, 20 μl CCK8 solution (cat #A311-01/02, Vazyme Biotech Co., Ltd., Nanjing, China) was added into the medium and incubated for 45 min. The absorbance was measured at 450 nm.
To evaluate the anti-inflammatory effects of these newly synthesized flavan-3-ols, RAW 264.7 cells (mouse monocyte/macrophage cell) were used as the in vitro model. First, CCK-8 (Cell Counting Kit-8) assay was performed to test the effects of these newly synthesized flavan-3-ols on cell viability (FIG. 9a-d). RAW 264.7 cells were treated with the newly synthesized flavan-3-ols ranging from 25 to 100 μM for 24 h. As shown in […], treatment with each compound at 25 and 50 μM for 24 h had no effect on the cell viability of RAW 264.7 cell. […] Therefore, the final concentration of each compound used in the following experiments were no more than 100 μM, and compound concentrations at 25 and 50 μM were used in the further experiments.
(In general: Tetrazolium dyes change colour on reduction, which living cells bring about.)

Series [2] has as its system LPS-stimulated RAW 264.7 cells. Briefly: RNA-sequencing analysis with GO and KEGG enrichment. The series is classed as cell-based, mouse. As to conditions: for inflammation-related genes downregulated: KEGG-classified inflammation-related genes. How it is done:
RNA-sequencing analysis RAW 264.7 cells were treated with each flavan-3-ol (25, 50 μM) for 24 h followed by LPS (1 μg/mL) stimulation for another 2 h. Cells were collected and then directly prepared for cDNAs amplification and RNA-Seq library construction. Total RNA was isolated with TRIzol reagent from each group. A complementary DNA library was prepared and sequencing was performed according to the Illumina standard protocol developed by Suzhou GENEWIZ Biological Technology Co., Ltd. (https://www.genewiz.com). […] After filtering, reference genome and gene model annotation files were downloaded from a genome website browser (NCBI/UCSC/Ensembl). Indexes of the reference genome were built using Bowtie v2.0.6 and paired-end clean reads were aligned to the reference genome using TopHat v2.0.9. Bowtie was used for a BWT (Burrows-Wheeler Transformer) algorithm for mapping reads to the genome and Tophat can generate a database of splice junctions based on the gene model annotation file and thus achieve a better mapping result than other non-splice mapping tools. For the quantification of gene expression level, HTSeq V0.6.1 was used to count the read numbers mapped for each gene. The RPKM of each gene was calculated based on the gene read counts mapped to this gene. A differential expression analysis was performed using the DESeq R package (1.10.1). For clustering, the inventors clustered different samples to see the correlation using hierarchical clustering distance method with the function of heatmap, SOM (Self-organization mapping) and k means using silhouette coefficient to adapt the optimal classification with default parameter in R. The complete RNA-seq datasets in this manuscript captioned has been deposited at GEO database (http://www.ncbi.nlm.nih.gov/geo/) under accession ID GSE181052.
Gene ontology (GO) and KEGG enrichment analysis GO enrichment analysis of differentially expressed genes was implemented by the GOseq R Package, in which gene length bias was corrected. GO analysis was performed with the DAVID online tool (https://david.ncifcrf.gov/). Top GO categories were selected according to the P-values. Pathways of differentially expressed genes were analyzed by the KEGG database (http://www.kegg.jp/kegg/). The inventors used KOBAS software to test the statistical enrichment of differential expression genes in KEGG pathways.
RNA-seq analysis of downstream genes regulated by flavan-3-ols. […] RNA-seq analysis was performed to further study the effects of compounds 3m, 3o, 3p, 3ae and 3ag on gene transcriptional pathways related to inflammation. RAW 264.7 cells were used in the RNA-seq analysis, in which cells were pretreated with each compound (50 μM) for 24 h followed by LPS (1 μg/mL) stimulation for another 2 h. […] Next, the inventors focused on genes related to inflammatory reactions and inflammation-related diseases (inflammation-related genes) based on the gene and pathway classification of Kyoto Encyclopedia of Genes and Genomes (KEGG database).
To further analyze the functional distribution of differentially-expressed genes in relation to different biological processes, cellular components and molecular functions, gene ontology (GO) enrichment analysis was performed. The histogram of GO enrichment of differentially-expressed genes was presented.
Furthermore, to determine the biochemical metabolic pathways and signal transduction pathways involved in differentially expressed genes regulated by compound 3ag, KEGG pathway analysis was then performed.

In series [3] the test system is IL-1β. Briefly: ELISA of IL-1β secretion from LPS-stimulated RAW 264.7 cells. The series is classed as cell-based, mouse. To be noted: compound 50 μM 24 h, then LPS 1 μg/mL 2 h (FIG. 8). How it is done: RAW 264.7 cells were pretreated with each compound (50 μM) for 24 h followed by LPS (1 μg/mL) stimulation for another 2 h. The concentrations of IL-1β in RAW 264.7 cell culture supernatants were measured by ELISA kits and the inhibition rate of compound on the secretion of each pro-inflammatory cytokine was calculated. Data from three independent experiments were expressed as means±SD. *P<0.05, **P<0.01 compared with LPS-stimulated group.
Cell culture The RAW 264.7 cell line was purchased from the Cell Bank of Shanghai Institute of Biochemistry & Cell Biology at the Chinese Academy of Sciences (Shanghai, China) and cultured in DMEM supplemented with 10% (v/v) fetal bovine serum (FBS), 100 U/ml penicillin and 100 […], in a stable environment with 5% CO2 at 37° C. Before used in the following in vitro experiments, RAW 264.7 cells were pretreated with synthesized flavan-3-ol (25, 50 μM) for 24 h followed by LPS (1 μg/mL) stimulation for another 2 h.
Enzyme-Linked Immunosorbent Assay (ELISA) RAW 264.7 cells were treated with these synthesized flavan-3-ols (25, 50 μM) for 24 h followed by LPS (1 μg/mL) stimulation for another 2 h and the culture supernatant was collected. The concentrations of IL-1β, IL-6 and TNF-α in the culture supernatant of RAW 264.7 cells were determined according to the manufacturer's instructions of the Duo-set enzyme linked immune sorbent assay kits, purchased from R&D Systems Co. Ltd. (Minneapolis, MN, USA).
The increased pro-inflammatory cytokines production in RAW 264.7 cells has been reported to play an influential role in the inflammation response. To evaluate the anti-inflammatory effects of these flavan-3-ols in vitro, ELISA kits were employed to investigate their effects on the LPS (lipopolysaccharide)-induced pro-inflammatory cytokines production of RAW 264.7 cells. After treating with the flavan-3-ols (25 and 50 μM) and stimulated by LPS, the levels of three main pro-inflammation cytokines including IL-1β ([…]), IL-6 (interleukin-6), and TNF-α (tumor necrosis factor-α) in culture supernatant from RAW 264.7 cells were measured by ELISA kits, and then the inhibition rates of the flavan-3-ols on the secretion of each pro-inflammatory cytokine were calculated by the formula shown as follows.
[formula] In this formula, “L” refers to “the pro-inflammatory cytokine level in cell culture supernatant of LPS-induced group (L)” and “Lc” refers to “the pro-inflammatory cytokine level in cell culture supernatant of compound-treated group (Lc)”. Using this calculation, the reduced levels of pro-inflammation cytokines in the compound treated group would give higher values, which reflect higher inhibition rates.
FIG. 4a-c show the effect of flavan-3-ols on pro-inflammatory cytokine secretion in vitro. RAW 264.7 cells were pretreated with each compound (25, 50 μM) for 24 h followed by LPS (1 μg/mL) stimulation for another 2 h. The concentrations of IL-1β, IL-6, TNF-α in RAW 264.7 cell culture supernatants were measured by ELISA kits and the inhibition rate of compound on the secretion of each pro-inflammatory cytokine was calculated.

Setting [4] is: 50 μM, vs LPS-stimulated group, of a total of 1915 genes.

As for `O[C@H]1Cc2c(F)cc(F)cc2O[C@@H]1c1ccc(F)c(F)c1` [3ai, (2R,3S)-2-(3,4-difluorophenyl)-5,7-difluorochroman-3-ol], the “effect on cell viability” value in series [1] is reported as “reduced viability”.
`O[C@H]1Cc2ccccc2O[C@@H]1c1cccs1` [3n, (2S,3S)-2-(thiophen-2-yl)chroman-3-ol] gave a melting point of 94 to 95 °C. For the same compound, the “effect on cell viability” value in series [1] is recorded as “reduced viability”.
As to `O[C@H]1Cc2cc(F)ccc2O[C@@H]1c1ccccc1` [3ad, (2R,3S)-6-fluoro-2-phenylchroman-3-ol], the melting point lay within 110 to 111 °C. Further, the “effect on cell viability” value in series [1] is “reduced viability”.
In the case of `O[C@H]1Cc2cc(Cl)cc(Cl)c2O[C@@H]1c1ccccc1` [3ag, (2R,3S)-6,8-dichloro-2-phenylchroman-3-ol], the melting point was 126 to 127 °C. This compound registered a genes differentially regulated in series [2] (50 μM 24 h, then LPS 1 μg/mL 2 h, vs untreated LPS-stimulated group) of 1098 genes. In series [2] (50 μM, vs LPS-stimulated group), this compound came in with a genes downregulated of 954 genes, a genes upregulated of 144 genes and an inflammation-related genes downregulated of 40 genes. In series [2] (setting [4]), the “genes downregulated, share of genes expressed” value was determined as 49.8% and the “genes upregulated, share of genes expressed” value is listed as 7.5%. The “GO enrichment of downregulated genes” value in series [2] (vs LPS-induced group (FIG. 6)) is “associated with inflammatory response (GO: 0006954) and cellular response to lipopolysaccharide (GO: 0071222)”. Moreover, in series [2] (vs LPS-induced group (FIG. 7a-b)), the “KEGG pathways of downregulated genes” value was “IL-17 signaling pathways, PI3K-Akt signaling pathway and TNF signaling pathway”. The “inhibition rate of IL-1β secretion compared with enantiomer and racemic form” value in series [3] was “higher inhibition rates than their enantiomers”.
On to `O[C@H]1Cc2cc(Cl)ccc2O[C@@H]1c1ccccc1` [3ae, (2R,3S)-6-chloro-2-phenylchroman-3-ol], for which the melting point lay within 130 to 131 °C. In series [2] (50 μM, vs LPS-stimulated group), the inflammation-related genes downregulated entry is recorded as “downregulated parts of inflammation-related genes”. In addition, in series [3], the “inhibition rate of IL-1β secretion compared with enantiomer and racemic form” value is on record as “higher inhibition rates than their enantiomers”.
For `O[C@H]1Cc2ccccc2O[C@@H]1c1ccc(C(F)(F)F)cc1` [3i, (2R,3S)-2-(4-(trifluoromethyl)phenyl)chroman-3-ol], the melting point lay within 114 to 115 °C. The “effect on cell viability” value in series [1] is listed as “reduced viability”.

For orientation: melting point means the temperature, or range, at which the solid turns liquid.
